Structures are written as SMILES.

Type in all cases: cell-based, human
Experiment [1] deals with T-cell. The experiment is described as follows: IL-2 secretion from T-cells stimulated with anti-CD3 antibody alone (Biological Example 2). The note with it: T-cell, fold change over baseline, primary human total T-cells, read-out: IL-2 secretion Anti-CD3 stimulation; for fold induction at 1 µM: 1 μM Cbl-b inhibitor; for fold induction at 8 µM: 8 μM Cbl-b inhibitor.
The subject of experiment [2] is T-cell. The experiment is described as follows: CD25 cell surface staining on T-cells stimulated with anti-CD3 antibody alone (Biological Example 2). The conditions noted are these: T-cell, fold change over baseline, primary human total T-cells, read-out: CD25 staining Anti-CD3 stimulation; for fold induction at 1 µM: 1 μM Cbl-b inhibitor; for fold induction at 8 µM: 8 μM Cbl-b inhibitor.

Experiment [3] deals with T-cell. The experiment is described as follows: IL-2 secretion from T-cells co-stimulated with anti-CD3 and anti-CD28 antibody (Biological Example 2). The conditions noted are these: Homo sapiens, T-cell, fold change over baseline, primary human total T-cells, read-out: IL-2 secretion Anti-CD3/Anti-CD28 stimulation; for fold induction at 0.3 µM: 0.3 μM Cbl-b inhibitor; for fold induction at 1 µM: 1 μM Cbl-b inhibitor; for fold induction at 4 µM: 4 μM Cbl-b inhibitor. The method in brief:
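T-cells were stimulated with anti-CD3 antibody alone or with anti-CD28 antibody, in the presence or absence of Cbl-b inhibitor. IL-2 secretion or CD25 surface staining was measured, and values expressed as fold over the uninhibited baseline […].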

Turning to `Cn1cnnc1C(F)(F)C(C)(F)c1cccc(N2Cc3c(cccc3C(F)(F)F)C2=O)c1` (racemic) [Compound 296, 2-(3-(1,1,2-trifluoro-1-(4-methyl-4H-1,2,4-triazol-3-yl)propan-2-yl)phenyl)-4-(trifluoromethyl)isoindolin-1-one], in experiment [1], the fold induction at 1 µM was greater than 0.201 and the fold induction at 8 µM is greater than 0.201. Moreover, in experiment [2], the fold induction at 1 µM is 0.601 to 0.8 and the fold induction at 8 µM is 0.601 to 0.8. Further, in experiment [3], the fold induction at 0.3 µM is less than 1, the fold induction at 1 µM was less than 1 and the fold induction at 4 µM was in the range of 1.01 to 2.5.
As to `Cn1cnnc1CC(C)(F)c1cccc(N2Cc3c(cccc3C(F)(F)F)C2=O)c1` (racemic) [Compound 298, 2-(3-(2-fluoro-1-(4-methyl-4H-1,2,4-triazol-3-yl)propan-2-yl)phenyl)-4-(trifluoromethyl)isoindolin-1-one], in experiment [1], the fold induction at 1 µM lay in the range of 0.051 to 0.1 and the fold induction at 8 µM was in the range of 0.101 to 0.15. In experiment [2], the fold induction at 1 µM lay within 0.601 to 0.8 and the fold induction at 8 µM was in the range of 0.601 to 0.8. In addition, in experiment [3], the fold induction at 0.3 µM was in the range of 5 to 7.5, the fold induction at 1 µM fell in the range of 5 to 7.5 and the fold induction at 4 µM is greater than 7.5.
Take `C[C@H](Cc1nncn1C)c1cc(N[C@@H]2CCOC2)nc(N2Cc3c(cccc3C(F)(F)F)C2=O)c1` (stereo in doubt) [Compound 362, 2-(4-((R)-1-(4-methyl-4H-1,2,4-triazol-3-yl)propan-2-yl)-6-((S)-THF-3-ylamino)pyridin-2-yl)-4-(trifluoromethyl)isoindolin-1-one]: in experiment [1], the fold induction at 1 µM lay within 0.051 to 0.1 and the fold induction at 8 µM fell in the range of 0.101 to 0.15. Moreover, in experiment [2], the fold induction at 1 µM fell in the range of 0.601 to 0.8 and the fold induction at 8 µM lay in the range of 0.801 to 1. Moreover, in experiment [3], the fold induction at 0.3 µM is 1.01 to 2.5, the fold induction at 1 µM was 1.01 to 2.5 and the fold induction at 4 µM is 1.01 to 2.5.
For `Cc1cc(C(=O)Nc2cccc([C@H](C)Sc3nncn3C)c2)nc2ccccc12` [Compound 30, (S)-4-Methyl-N-(3-(1-((4-methyl-4H-1,2,4-triazol-3-yl)thio)ethyl)phenyl)quinoline-2-carboxamide], in experiment [1], the fold induction at 1 µM fell in the range of 0.051 to 0.1 and the fold induction at 8 µM was in the range of 0.101 to 0.15. In experiment [2], the fold induction at 1 µM was 0.601 to 0.8 and the fold induction at 8 µM lay within 0.801 to 1. Also, in experiment [3], the fold induction at 0.3 µM lay within 1.01 to 2.5, the fold induction at 1 µM fell in the range of 1.01 to 2.5 and the fold induction at 4 µM was in the range of 2.51 to 5.
On to `C[C@H](Sc1nncn1C)c1cccc(NC(=O)c2cc(C(F)(F)F)ccn2)c1` [Compound 32, (S)-N-(3-(1-((4-Methyl-4H-1,2,4-triazol-3-yl)thio)ethyl)phenyl)-4-(trifluoromethyl)picolinamide], for which, in experiment [1], the fold induction at 1 µM is less than 0.05 and the fold induction at 8 µM is 0.101 to 0.15. Further, in experiment [2], the fold induction at 1 µM fell in the range of 0.601 to 0.8 and the fold induction at 8 µM was greater than 1. In addition, in experiment [3], the fold induction at 0.3 µM is less than 1, the fold induction at 1 µM lay in the range of 1.01 to 2.5 and the fold induction at 4 µM was 1.01 to 2.5.
Turning to `CC(C)c1cccc(C(=O)Nc2cccc([C@H](C)Sc3nncn3C)c2)n1` [Compound 33, (S)-6-Isopropyl-N-(3-(1-((4-methyl-4H-1,2,4-triazol-3-yl)thio)ethyl)phenyl)picolinamide], in experiment [1], the fold induction at 1 µM was less than 0.05 and the fold induction at 8 µM was less than 0.05. For the same molecule, in experiment [2], the fold induction at 1 µM was less than 0.6 and the fold induction at 8 µM fell in the range of 0.801 to 1. Further, in experiment [3], the fold induction at 0.3 µM was 2.51 to 5, the fold induction at 1 µM lay within 2.51 to 5 and the fold induction at 4 µM was greater than 7.5.
Consider `Cc1ccc(C(=O)Nc2cccc([C@H](C)Sc3nncn3C)c2)nc1C` [Compound 35, (S)-5,6-Dimethyl-N-(3-(1-((4-methyl-4H-1,2,4-triazol-3-yl)thio)ethyl)phenyl)picolinamide], for which, in experiment [1], the fold induction at 1 µM is less than 0.05 and the fold induction at 8 µM was greater than 0.201. Moreover, in experiment [2], the fold induction at 1 µM was less than 0.6 and the fold induction at 8 µM is 0.601 to 0.8. Besides, in experiment [3], the fold induction at 0.3 µM was 1.01 to 2.5, the fold induction at 1 µM was in the range of 2.51 to 5 and the fold induction at 4 µM was in the range of 2.51 to 5.
On to `Cc1cccc2nc(C(=O)Nc3cccc([C@H](C)Sc4nncn4C)c3)ccc12` [Compound 48, 5-Methyl-N-[3-[(1S)-1-[(4-methyl-4H-1,2,4-triazol-3-yl)sulfanyl]ethyl]phenyl]quinoline-2-carboxamide], for which, in experiment [1], the fold induction at 1 µM was less than 0.05 and the fold induction at 8 µM was 0.101 to 0.15. Also, in experiment [2], the fold induction at 1 µM was in the range of 0.801 to 1 and the fold induction at 8 µM fell in the range of 0.801 to 1. Besides, in experiment [3], the fold induction at 0.3 µM was in the range of 2.51 to 5, the fold induction at 1 µM lay in the range of 5 to 7.5 and the fold induction at 4 µM is greater than 7.5.
In the case of `C[C@H](Sc1nncn1C)c1cccc(NC(=O)c2ccc(Cl)c(C(F)(F)F)n2)c1` [Compound 51, (S)-5-chloro-N-(3-(1-((4-methyl-4H-1,2,4-triazol-3-yl)thio)ethyl)phenyl)-6-(trifluoromethyl)picolinamide], in experiment [1], the fold induction at 1 µM was less than 0.05 and the fold induction at 8 µM is less than 0.05. Moreover, in experiment [2], the fold induction at 1 µM was 0.801 to 1 and the fold induction at 8 µM was greater than 1. For the same molecule, in experiment [3], the fold induction at 0.3 µM is less than 1, the fold induction at 1 µM was less than 1 and the fold induction at 4 µM is 1.01 to 2.5.
Consider `C[C@H](Sc1nncn1C)c1cccc(NC(=O)c2cc(C(C)(C)O)c(Cl)cn2)c1` [Compound 55, (S)-5-chloro-4-(2-hydroxypropan-2-yl)-N-(3-(1-((4-methyl-4H-1,2,4-triazol-3-yl)thio)ethyl)phenyl)picolinamide], for which, in experiment [1], the fold induction at 1 µM was less than 0.05 and the fold induction at 8 µM is less than 0.05. For the same molecule, in experiment [2], the fold induction at 1 µM was less than 0.6 and the fold induction at 8 µM fell in the range of 0.601 to 0.8. In experiment [3], the fold induction at 0.3 µM lay in the range of 1.01 to 2.5, the fold induction at 1 µM was 1.01 to 2.5 and the fold induction at 4 µM was 1.01 to 2.5.
Turning to `Cc1cc(C)nc(C(=O)Nc2cccc([C@H](C)Sc3nncn3C)c2)c1` [Compound 56, (S)-4,6-dimethyl-N-(3-(1-((4-methyl-4H-1,2,4-triazol-3-yl)thio)ethyl)phenyl)picolinamide], in experiment [1], the fold induction at 1 µM is less than 0.05 and the fold induction at 8 µM is less than 0.05. Moreover, in experiment [2], the fold induction at 1 µM is less than 0.6 and the fold induction at 8 µM is 0.801 to 1. Further, in experiment [3], the fold induction at 0.3 µM is 2.51 to 5, the fold induction at 1 µM fell in the range of 5 to 7.5 and the fold induction at 4 µM was greater than 7.5.
With `Cc1ccc(C(=O)Nc2cccc([C@H](C)Sc3nncn3C)c2)nc1C(F)(F)F` [Compound 61, (S)-5-methyl-N-(3-(1-((4-methyl-4H-1,2,4-triazol-3-yl)thio)ethyl)phenyl)-6-(trifluoromethyl)picolinamide], in experiment [1], the fold induction at 1 µM is less than 0.05 and the fold induction at 8 µM was less than 0.05. Also, in experiment [2], the fold induction at 1 µM is 0.601 to 0.8 and the fold induction at 8 µM was greater than 1. For the same molecule, in experiment [3], the fold induction at 0.3 µM was less than 1, the fold induction at 1 µM is less than 1 and the fold induction at 4 µM was 1.01 to 2.5.
In the case of `COc1nc(C(=O)Nc2cccc([C@H](C)Sc3nncn3C)c2)cc2ccccc12` [Compound 62, (S)-1-methoxy-N-(3-(1-((4-methyl-4H-1,2,4-triazol-3-yl)thio)ethyl)phenyl)isoquinoline-3-carboxamide], in experiment [1], the fold induction at 1 µM was less than 0.05 and the fold induction at 8 µM lay in the range of 0.051 to 0.1. For the same molecule, in experiment [2], the fold induction at 1 µM is less than 0.6 and the fold induction at 8 µM is 0.801 to 1. In addition, in experiment [3], the fold induction at 0.3 µM was 2.51 to 5, the fold induction at 1 µM lay in the range of 5 to 7.5 and the fold induction at 4 µM is greater than 7.5.
Consider `C[C@H](Sc1nncn1C)c1cccc(NC(=O)c2cc(C(F)(F)F)cc(C(F)(F)F)n2)c1` [Compound 64, (S)-N-(3-(1-((4-methyl-4H-1,2,4-triazol-3-yl)thio)ethyl)phenyl)-4,6-bis(trifluoromethyl)picolinamide], for which, in experiment [1], the fold induction at 1 µM is less than 0.05 and the fold induction at 8 µM is less than 0.05. In addition, in experiment [2], the fold induction at 1 µM was less than 0.6 and the fold induction at 8 µM was 0.601 to 0.8. Also, in experiment [3], the fold induction at 0.3 µM is less than 1, the fold induction at 1 µM is less than 1 and the fold induction at 4 µM lay within 1.01 to 2.5.
For `C[C@H](Sc1nncn1C)c1cccc(NC(=O)c2cc(Cl)cc(C(F)(F)F)n2)c1` [Compound 68, (S)-4-chloro-N-(3-(1-((4-methyl-4H-1,2,4-triazol-3-yl)thio)ethyl)phenyl)-6-(trifluoromethyl)picolinamide], in experiment [1], the fold induction at 1 µM is less than 0.05 and the fold induction at 8 µM fell in the range of 0.051 to 0.1. Moreover, in experiment [2], the fold induction at 1 µM lay within 0.601 to 0.8 and the fold induction at 8 µM was 0.801 to 1. Besides, in experiment [3], the fold induction at 0.3 µM was 1.01 to 2.5, the fold induction at 1 µM was 1.01 to 2.5 and the fold induction at 4 µM is 1.01 to 2.5.
With `C[C@H](Sc1nncn1C)c1cccc(NC(=O)c2cc(C(F)(F)F)cc(C3CC3)n2)c1` [Compound 69, (S)-6-cyclopropyl-N-(3-(1-((4-methyl-4H-1,2,4-triazol-3-yl)thio)ethyl)phenyl)-4-(trifluoromethyl)picolinamide], in experiment [1], the fold induction at 1 µM is less than 0.05 and the fold induction at 8 µM was less than 0.05. Besides, in experiment [2], the fold induction at 1 µM was less than 0.6 and the fold induction at 8 µM is less than 0.6. For the same molecule, in experiment [3], the fold induction at 0.3 µM was less than 1, the fold induction at 1 µM was less than 1 and the fold induction at 4 µM fell in the range of 1.01 to 2.5.

The record behind these values is US20220324835A1 (Nurix Therapeutics, Inc., priority 2018, published 2022).
